In paper PMC8247886, “Getting a Grip on the Undrugged: Targeting β‐Catenin with Fragment‐Based Methods” (Chemmedchem, 2021):

Assays:
[1] = Solubility in NMR buffer at pH 7.5 by quantitative NMR (maleic acid external standard); assay type: physicochemical; details: NMR buffer (Tris/NaCl with 2% DMSO-d6), aqueous buffer, kinetic from dmso stock; NMR buffer pH 7.5; intended concentration 500 or 2000 μM; read-out: Solub. pH 7.5
Protocol: buffer (Tris 25 mM, pH 7.5, NaCl 150 mM) containing 2% DMSO-d6. […]
Solubility of compounds was determined in NMR buffer at pH 7.5 (see above) by integrating the
signal of 250 µM maleic acid as an external standard relative to the integrals of the ligands. If the
intended concentrations of 500 µM respective 2000 µM were reached the value is reported as >
500 µM or > 2000 µM. […]

[2] = molecular target: T1, β-catenin141–305 (Homo sapiens, UniProt P35222); test: 2D 15N NMR (TROSY/HSQC/HMQC) detected binding and Kd titration
T1 construct: Amino acids 141-305 of uniprot ID: P35222; GST (cleaved yes); made in house; host or cells: E. coli BL21 (DE3)
T1 sequence (P35222 141-305): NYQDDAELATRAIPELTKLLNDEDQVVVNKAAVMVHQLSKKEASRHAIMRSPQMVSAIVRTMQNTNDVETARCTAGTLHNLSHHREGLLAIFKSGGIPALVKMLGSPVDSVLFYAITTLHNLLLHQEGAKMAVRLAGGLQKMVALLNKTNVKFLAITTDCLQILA
Protocol: The construct for expression of β-catenin141-305 (Amino acids 141-305 of uniprot ID: P35222) is based on the previously reported R4 construct1. The plasmid was used to transform E. coli, strain BL21 (DE3) cells (Invitrogen). For protein expression, an overnight culture in LB-medium supplemented ampicillin (100 µg/mL) at 37 °C was prepared and diluted the next day with fresh 2xYT-medium. At OD600 of 0.8 the culture was cooled down to 18 °C and after induction with 0.5 mM IPTG incubated for 20 h. Cell pellets obtained by centrifugation at 5000 rpm were stored at - 20 °C. Cells were solubilized in buffer A (2X Dulbecco’s PBS; 500 mM NaCl; 10 % Glycerol; 0.5 mM TCEP; cOmplete™ Protease Inhibitor Cocktail; pH 7.4) and disrupted by sonication (Sonopuls, Bandelin) on ice. After 30 min the sonicated lysate was clarified by centrifugation (50 min, 13500 rpm, 4 °C). The supernatant was mixed with 20 mL Glutathione Sepharose® 4B resin (GE Healthcare) slurry, washed in lysis buffer, and steered for 3 hours on ice. The beads were spun down, loaded into a XK16 column cartridge and washed with lysis buffer until baseline. The protein was eluted with buffer B (2X Dulbecco’s PBS; 500 mM NaCl; 10 % Glycerol; 0.5 mM TCEP;; pH 7.4) + 25 mM L-Glutathione reduced. After cleavage with 2000 units Human Alpha Thrombin (Enzyme Research Laboratories) at room temperature overnight, the protein was collected in the flow-through fraction of a second GST run (GSTrap HP 5 mL column; GE Healthcare) using buffer B. The flow-through was concentrated by centrifugation using an Amicon© Ultra 15 mL Centrifugal Filter (Merck Millipore) and loaded onto a HiLoad Superdex S75 column (GE Healthcare) equilibrated with 50 mM Tris; 200 mM NaCl; 3 mM DTT; pH 8.
Fractions were analyzed by SDS-PAGE and fractions containing the desired protein were pooled and concentrated with an Amicon© Ultra 15 mL Centrifugal Filter (Merck Millipore). […]
For confirmation of hits obtained from STD-NMR by 2D 15N TROSY NMR4 a Bruker Avance III 600 MHz instrument with a 5 mm cryo-TCI probe and z-gradient was used. The experimental set up (automated sample preparation and transfer into the magnet by a Tecan Freedom Evo pipetting robot and a Bruker Sample Rail system, respectively) was identical. Each sample contained 25 uM 15N labeled β-catenin141-305 25 mM sodium phosphate, 150 mM sodium chloride, 100 mM sodium nitrate, 0.5mM TCEP pH 6.8 in H2O at 25 °C and 8% (v/v) D2O. The protein was incubated with 500 uM fragment in a 2.5 mm NMR tube at 25 °C and a d6DMSO concentration of 1%. Spectra were recorded with 48 transients and 64 data points in the indirect dimension. Manual comparison of the spectrum in the presence of the to be tested fragment with the DMSO reference spectrum reveal either line broadening or chemical shift perturbation of cross peaks. Both effects are indicative for compound binding. All processing and analysis was done with the Topspin 2.1 software (Bruker BioSpin). Further spectral comparisons were performed with the FELIX software package (Felix NMR Inc.) to combine manual with automated analysis5. […]
700MHz spectrometer equipped with a cryogenically cooled 5mm TCI probe. […]
The
WaterLOGSY pulse sequence was used as described before7. Selective water inversion was achieved with a double excitation sculpting element employing water selective Gaussian refocusing pulses (inversion bandwidth of 0.5 ppm, pulse length of 7.5 ms). The number of scans was set to 2048. Sample concentrations were 0.5 mM ligand and 0.25–10 µM β-catenin135-663 in […]

[3] = molecular target: T1, β-catenin141–305; test: STD-NMR fragment screening in mixtures; assay type: binding; details: fragment mixture, 250 µM each, 10 µM protein
Source text: labelling the protein was expressed in Overnight Express™ Autoinduction NMR Medium - ¹⁵N - Novagen (Merck Millipore) according to the technical description and purified as described for the unlabeled protein. The protein of β-catenin135-663 (Amino acids 135-663 of uniprot ID: P35222) and the β-catenin binding domain of human BCL9 (Amino acids 347–392 of uniprot ID: O00512, containing an additional n-terminal glycine) was purchased (Proteros Biostructures GmbH).
Ligand based 1D 1H experiments were carried out on a Bruker Avance II 600 MHz spectrometer with a 5 mm cryo-QCI probe and z-gradients. […] The on and off resonance spectra were recorded in an interleaved fashion to minimize subtraction artifacts. […] After acquisition, the difference spectrum was calculated by subtracting the two individual spectra. […] These were readily assigned by comparing the signals with the respective pre-recorded reference spectra of the individual compounds present in the mixture. […]
For confirmation of hits obtained from STD-NMR by 2D 15N TROSY NMR4 a Bruker Avance III 600 MHz instrument with a 5 mm cryo-TCI probe and z-gradient was used. […] Spectra were recorded with 48 transients and 64 data points in the indirect dimension. […]
1D, GEM by STD and WaterLOGSY experiments were recorded at 298 K on an Avance III 700MHz spectrometer equipped with a cryogenically cooled 5mm TCI probe. […]

[4] = molecular target: β-catenin; set-up: method as in PMID 17052462; details: previously determined binding affinity; read-out: ITC Kd; cited from earlier work
[5] = molecular target: T1, β-catenin141–305; test: Surface Plasmon Resonance (SPR) Kd determination; assay type: binding; details: positive control, n=3; 1:1 binding model
Protocol: Surface Plasmon Resonance (SPR)
A Biacore T200 instrument was used for SPR analysis, β-catenin141-305 was pre-diluted to a concentration of 0.1 mg/mL with 10 mM sodium acetate buffer, pH 5.0 and immobilized at a density of 6000 –7000 response units on flow cell 2 of a Biacore CM5 chip. Carbonic anhydraseII served as a reference protein on flow cell 3 and flow cell 1 was kept blank and used as the reference surface. A mixture of 20 mM Tris, pH 7.5, 150 mM NaCl, 0.5 mM TCEP, 0.005% Tween20, 2 % dimethyl sulfoxide was used as assay buffer. After pre -equilibration of the chip with 10 blank injections, the Kd measurements were performed by injecting a concentration series of analyte (9 concentrations, 1:1 dilutions). BCL9 347-392 served as a positive control. K d values were determined by global fitting of the steady-state response for each of the 9 concentrations to a 1:1 interaction model using the Biacore T200 evaluation software. Each compound was injected three times and […]
average Kd values were calculated from the repeats. The reported data are the mean values of three independent experiments ± standard deviations. […]
Glutamax Supplement (Thermo Fisher Scientific, 35050061) with 10% FCS (GE Healthcare, SH30071.03). Transfections were performed with Lipofectamine LTX Reagent (Thermo Fisher, 15338100) according the manufacturer’s instructions.

[6] = molecular target: T1, β-catenin141–305; test: Microscale Thermophoresis (MST) screening and Kd determination; assay type: binding; details: assay validation; PBS pH 6.8, 100 mM NaNO3, 0.5 mM TCEP, 0.05% Tween-20, 25 °C
Protocol: buffer (Tris 25 mM, pH 7.5, NaCl 150 mM) containing 2% DMSO-d6. A stock solution of β-catenin135-663 (12.5 µM) was dialyzed before into Tris 25 mM pH 7.6 NaCl 150 mM and centrifuged at 4° C at 15000 rpm for 20 minutes. Intensity ratios Ilogsy/I1D are derived from scaling of the 1D intensity to the corresponding LOGSY intensity. STD GEMs were acquired with 1.5 µM […]
2.0; and 3.0 seconds for the saturation time build up curves to determine the initial rate constants2.
STD experiments were acquired with on and off resonance saturation at +0.1ppm and -40ppm respectively with 1048 scans each.
Solubility of compounds was determined in NMR buffer at pH 7.5 (see above) by integrating the signal of 250 µM maleic acid as an external standard relative to the integrals of the ligands. If the intended concentrations of 500 µM respective 2000 µM were reached the value is reported as > 500 µM or > 2000 µM. Compound 3 only reached a concentration of 1000 µM according to the QNMR experiment even though 2000 µM was intended, it’s solubility is therefore reported as […]
Microscale Thermophoresis.
Fluorescence labeling of β-catenin141-305 with the NT647 dye was achieved using the Monolith NT.115 Protein Labeling Kit RED-NHS according to the manufacturer’s protocol (NanoTemper Technologies, Munich, Germany). The BCL9 peptide was used as positive control for assay development to achieve a reliably detectable change in the thermophoretic mobility ( ΔFnorm). […]
Final assay conditions were 50 nM NT647 labeled β-catenin141-305 in PBS pH 6.8 supplemented with 100 mM NaNO3, 0.5 mM TCEP and 0.05% Tween-20 at 25° C. Fragment screening detected […]
by MST was carried out as previously described8,9. […] Manual inspection of all MST traces was used to reject non-standard traces stemming from protein aggregation, bleaching, or fluorescence quenching. ΔFnorm values (ΔFnorm=Fhot/Fcold) were calculated and the mean values of the duplicates were compared to the mean values of the DMSO negative control. […] Protein integrity over the entire FBS was monitored by the BCL9 peptide positive control. […]

solubility [1] | chemical shift perturbations (CSPs) in 2D 15N NMR ([2]; 500 μM compound) | Kd ([2]; 15N NMR titration, single titration, mean of curves of selected cross peaks ± SD, read-out: HSQC Kd) | STD-NMR binding [3] | Kd [5] | Kd [6] | Compound | Kd [4]
> 500 µM | minor chemical shift perturbation | > 10000 µM | unambiguously identified as binders | – | – | O=C1NCCNc2c1cccc2[N+](=O)[O-] [Compound 1] | –
– | – | – | – | 0.225 µM | 0.36 µM | BCL9^347−392: β-catenin binding domain of human BCL9 (amino acids 347–392, additional N-terminal glycine), positive control (NPDGLSQEQLEHRERSLQTLRDIQRMLFPDEKEFTGAQSGGPQQNP; additional N-terminal glycine; UniProt O00512 347-392, looked up, fragment) [reference compound] | 0.54 µM
